Where two headings read alike, the source gives them in different places. Blank lines part the entries; values can stand above or below the compound they belong to.
Columns and labels:
[1] = test system: mitochondrial cytochrome P450s; test: in vitro; conditions: rat, pH 7.4, inhibition of melatonin O-demethylation (NAS formation)
human liver microsomes = conditions: cited from earlier work
[2] = test system: rat microsomal cytochrome P450s; test: in vitro; conditions: microsomes, pH 7.4, inhibition of melatonin O-demethylation (NAS formation)
NADH oxidase = conditions: isolated rat liver mitochondria; cited from earlier work
[3] = test system: mitochondrial cytochrome P450s; conditions: mitochondria
[4] = test system: rat microsomal cytochrome P450s; conditions: microsomes
CYP1A2 = conditions: liver slices and microsomes of treated rats; cited from earlier work
[5] = test system: rat liver postmitochondrial supernatant; conditions: cited from earlier work
[6] = 6-HMel formation from melatonin

inhibition at 60 min, 5 μM [1]: 33% | inhibition at 60 min, 5 μM [2]: 38%
SMILES: C=C[C@H]1C[N@@]2CC[C@H]1C[C@@H]2[C@@H](O)c1ccnc2ccc(OC)cc12 [Quinidine, quinidine]
inhibition of melatonin metabolism (human liver microsomes): only weak inhibitors

inhibition at 60 min, 5 μM [1]: 49% | inhibition at 60 min, 5 μM [2]: 52%
SMILES: CC(=O)N1CCN(c2ccc(OCC3COC(Cn4ccnc4)(c4ccc(Cl)cc4Cl)O3)cc2)CC1 (stereo not shown) [Ketoconazole, ketoconazole]
inhibition of melatonin metabolism (human liver microsomes): only weak inhibitors | inhibition of NADH oxidase (NADH oxidase): dose-dependent inhibition

inhibition at 60 min, 10 μM [1]: 27%
SMILES: Nc1ccc(S(=O)(=O)Nc2ccnn2-c2ccccc2)cc1 [sulfaphenazole]

inhibition at 60 min, 100 μM [1]: 81% | inhibition at 60 min, 100 μM [2]: 78%
SMILES: COc1ccc2[nH]c([S+]([O-])Cc3ncc(C)c(OC)c3C)nc2c1 (stereo not shown) [Omeprazole, omeprazole]

The next lines start with the compound.

SMILES: CCN(CC)C(=S)S [Diethyldihydrocarbamate, diethyldithiocarbamate]
inhibition at 60 min, 50 μM [1]: 74% | inhibition at 60 min, 50 μM [2]: 38%

SMILES: COc1ccc2[nH]cc(CCNC(C)=O)c2c1 [melatonin, N-acetyl-5-methoxytryptamine]
Km2 (low affinity component) [3, 6]: 406.6 ± 19.84 µM | Km1 (high affinity component) ([3]; NAS formation from melatonin): 13.96 ± 2.37 µM | Km1 (high affinity component) [4, 6]: 48.33 ± 9.17 µM | Km2 (low affinity component) [4, 6]: 496.8 ± 53.78 µM | Km1 (high affinity component) ([4]; NAS formation from melatonin): 25.86 ± 1.39 µM | Km2 (low affinity component) ([4]; NAS formation from melatonin): 953.3 ± 85.95 µM

SMILES: O=c1cc(-c2ccccc2)oc2c1ccc1ccccc12 [α-naphthoflavone]
increase in melatonin conversion to 6-sulphatoxymelatonin (CYP1A2): 3 fold

SMILES: Cc1nc2c([nH]1)c(=O)n(C)c(=O)n2Cc1ccco1 [Furafylline, furafylline]
inhibition at 60 min, 20 μM [1]: 63% | inhibition of the conversion of melatonin to 6-sulphatoxymelatonin [5]: inhibited markedly | inhibition at 60 min, 20 μM [2]: 27%

— article PMC2587488 (Journal of pineal research, 2008)
